Assay results taken from PubChem BioAssay AID1918994 (Molecular Pharmacology Branch, DTP, NCI, 2023).

System: 292921-168-R-J2-PDC complex spheroid growth
Experiment: Anticancer human tumor 292921-168-R-J2-PDC patient-derived pancreatic carcinoma cell line growth inhibition [AhR]
Details: second compound 1 µM; first compound 0.003 µM; hits give low values
Procedure, shortened: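 Spheroids combined tumor cells with HUVEC endothelial cells and human MSCs as stroma. AhR antagonists were paired with standard or investigational drugs, each dosed in half-log steps down from near clinical Cmax, or from 10 microM where Cmax was unknown.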
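Also: spheroids exposed to compounds for seven days after three days of growth.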

SMILES | viability, T/C [%]
CCc1c2c(nc3ccc(O)cc13)-c1cc3c(c(=O)n1C2)COC(=O)[C@]3(O)CC + Cc1cncc(-c2nc(NCCc3c[nH]c4ccccc34)c3ncn(C(C)C)c3n2)c1 | 45.8

Same assay, conditions: second compound 1 µM; first compound 0.00949 µM; hits give low values

SMILES | viability, T/C [%]
CC(C)CC(NC(=O)C(Cc1ccccc1)NC(=O)c1cnccn1)B(O)O (configuration not stated) + Cc1cncc(-c2nc(NCCc3c[nH]c4ccccc34)c3ncn(C(C)C)c3n2)c1 | 48.7
CCc1c2c(nc3ccc(O)cc13)-c1cc3c(c(=O)n1C2)COC(=O)[C@]3(O)CC + Cc1cncc(-c2nc(NCCc3c[nH]c4ccccc34)c3ncn(C(C)C)c3n2)c1 | 22.5

Same assay, conditions: second compound 1 µM; first compound 0.03 µM; hits give low values

SMILES | viability, T/C [%]
CC(C)CC(NC(=O)C(Cc1ccccc1)NC(=O)c1cnccn1)B(O)O (configuration not stated) + Cc1cncc(-c2nc(NCCc3c[nH]c4ccccc34)c3ncn(C(C)C)c3n2)c1 | 3.35
CCc1c2c(nc3ccc(O)cc13)-c1cc3c(c(=O)n1C2)COC(=O)[C@]3(O)CC + Cc1cncc(-c2nc(NCCc3c[nH]c4ccccc34)c3ncn(C(C)C)c3n2)c1 | 11.6

Same assay, conditions: second compound 1 µM; first compound 0.0316 µM; hits give low values

SMILES | viability, T/C [%]
COc1cc(Nc2ncc3c(n2)-c2ccc(Cl)cc2C(c2c(F)cccc2OC)=NC3)ccc1C(=O)O + Cc1cncc(-c2nc(NCCc3c[nH]c4ccccc34)c3ncn(C(C)C)c3n2)c1 | 46.7
Nc1ccccc1NC(=O)c1ccc(CNC(=O)OCc2cccnc2)cc1 + Cc1cncc(-c2nc(NCCc3c[nH]c4ccccc34)c3ncn(C(C)C)c3n2)c1 | 58.4
O=C(C=Cc1cccc(S(=O)(=O)Nc2ccccc2)c1)NO + Cc1cncc(-c2nc(NCCc3c[nH]c4ccccc34)c3ncn(C(C)C)c3n2)c1 | 55.3
O=C(c1cc(Cc2n[nH]c(=O)c3ccccc23)ccc1F)N1CCN(C(=O)C2CC2)CC1 + Cc1cncc(-c2nc(NCCc3c[nH]c4ccccc34)c3ncn(C(C)C)c3n2)c1 | 84.2

Same assay, conditions: second compound 1 µM; first compound 0.0949 µM; hits give low values

SMILES | viability, T/C [%]
CC(C)CC(NC(=O)C(Cc1ccccc1)NC(=O)c1cnccn1)B(O)O (configuration not stated) + Cc1cncc(-c2nc(NCCc3c[nH]c4ccccc34)c3ncn(C(C)C)c3n2)c1 | 0.56
CCc1c2c(nc3ccc(O)cc13)-c1cc3c(c(=O)n1C2)COC(=O)[C@]3(O)CC + Cc1cncc(-c2nc(NCCc3c[nH]c4ccccc34)c3ncn(C(C)C)c3n2)c1 | 6.94

Same assay, conditions: second compound 1 µM; first compound 0.1 µM; hits give low values

SMILES | viability, T/C [%]
COc1cc(Nc2ncc3c(n2)-c2ccc(Cl)cc2C(c2c(F)cccc2OC)=NC3)ccc1C(=O)O + Cc1cncc(-c2nc(NCCc3c[nH]c4ccccc34)c3ncn(C(C)C)c3n2)c1 | 40.3
Nc1ccccc1NC(=O)c1ccc(CNC(=O)OCc2cccnc2)cc1 + Cc1cncc(-c2nc(NCCc3c[nH]c4ccccc34)c3ncn(C(C)C)c3n2)c1 | 60.7
O=C(C=Cc1cccc(S(=O)(=O)Nc2ccccc2)c1)NO + Cc1cncc(-c2nc(NCCc3c[nH]c4ccccc34)c3ncn(C(C)C)c3n2)c1 | 59.7
O=C(c1cc(Cc2n[nH]c(=O)c3ccccc23)ccc1F)N1CCN(C(=O)C2CC2)CC1 + Cc1cncc(-c2nc(NCCc3c[nH]c4ccccc34)c3ncn(C(C)C)c3n2)c1 | 80.6

Same assay, conditions: second compound 1 µM; first compound 0.3 µM; hits give low values

SMILES | viability, T/C [%]
CC(C)CC(NC(=O)C(Cc1ccccc1)NC(=O)c1cnccn1)B(O)O (configuration not stated) + Cc1cncc(-c2nc(NCCc3c[nH]c4ccccc34)c3ncn(C(C)C)c3n2)c1 | 0.95
CCc1c2c(nc3ccc(O)cc13)-c1cc3c(c(=O)n1C2)COC(=O)[C@]3(O)CC + Cc1cncc(-c2nc(NCCc3c[nH]c4ccccc34)c3ncn(C(C)C)c3n2)c1 | 4.02

Same assay, conditions: second compound 1 µM; first compound 0.316 µM; hits give low values

SMILES | viability, T/C [%]
COc1cc(Nc2ncc3c(n2)-c2ccc(Cl)cc2C(c2c(F)cccc2OC)=NC3)ccc1C(=O)O + Cc1cncc(-c2nc(NCCc3c[nH]c4ccccc34)c3ncn(C(C)C)c3n2)c1 | 47.8
Nc1ccccc1NC(=O)c1ccc(CNC(=O)OCc2cccnc2)cc1 + Cc1cncc(-c2nc(NCCc3c[nH]c4ccccc34)c3ncn(C(C)C)c3n2)c1 | 45.7
O=C(C=Cc1cccc(S(=O)(=O)Nc2ccccc2)c1)NO + Cc1cncc(-c2nc(NCCc3c[nH]c4ccccc34)c3ncn(C(C)C)c3n2)c1 | 49.6
O=C(c1cc(Cc2n[nH]c(=O)c3ccccc23)ccc1F)N1CCN(C(=O)C2CC2)CC1 + Cc1cncc(-c2nc(NCCc3c[nH]c4ccccc34)c3ncn(C(C)C)c3n2)c1 | 80.6

Same assay, conditions: second compound 1 µM; first compound 1 µM; hits give low values

SMILES | viability, T/C [%]
COc1cc(Nc2ncc3c(n2)-c2ccc(Cl)cc2C(c2c(F)cccc2OC)=NC3)ccc1C(=O)O + Cc1cncc(-c2nc(NCCc3c[nH]c4ccccc34)c3ncn(C(C)C)c3n2)c1 | 44.3
Nc1ccccc1NC(=O)c1ccc(CNC(=O)OCc2cccnc2)cc1 + Cc1cncc(-c2nc(NCCc3c[nH]c4ccccc34)c3ncn(C(C)C)c3n2)c1 | 35.9
O=C(C=Cc1cccc(S(=O)(=O)Nc2ccccc2)c1)NO + Cc1cncc(-c2nc(NCCc3c[nH]c4ccccc34)c3ncn(C(C)C)c3n2)c1 | 35.4
O=C(c1cc(Cc2n[nH]c(=O)c3ccccc23)ccc1F)N1CCN(C(=O)C2CC2)CC1 + Cc1cncc(-c2nc(NCCc3c[nH]c4ccccc34)c3ncn(C(C)C)c3n2)c1 | 88.2

Same assay, conditions: second compound 1 µM; first compound 3.16 µM; hits give low values

SMILES | viability, T/C [%]
COc1cc(Nc2ncc3c(n2)-c2ccc(Cl)cc2C(c2c(F)cccc2OC)=NC3)ccc1C(=O)O + Cc1cncc(-c2nc(NCCc3c[nH]c4ccccc34)c3ncn(C(C)C)c3n2)c1 | 41.9
Nc1ccccc1NC(=O)c1ccc(CNC(=O)OCc2cccnc2)cc1 + Cc1cncc(-c2nc(NCCc3c[nH]c4ccccc34)c3ncn(C(C)C)c3n2)c1 | 22.9
O=C(C=Cc1cccc(S(=O)(=O)Nc2ccccc2)c1)NO + Cc1cncc(-c2nc(NCCc3c[nH]c4ccccc34)c3ncn(C(C)C)c3n2)c1 | 30.5
O=C(c1cc(Cc2n[nH]c(=O)c3ccccc23)ccc1F)N1CCN(C(=O)C2CC2)CC1 + Cc1cncc(-c2nc(NCCc3c[nH]c4ccccc34)c3ncn(C(C)C)c3n2)c1 | 85.5

Same assay, conditions: second compound 1 µM; first compound 10 µM; hits give low values

SMILES | viability, T/C [%]
COc1cc(Nc2ncc3c(n2)-c2ccc(Cl)cc2C(c2c(F)cccc2OC)=NC3)ccc1C(=O)O + Cc1cncc(-c2nc(NCCc3c[nH]c4ccccc34)c3ncn(C(C)C)c3n2)c1 | 30.4
Nc1ccccc1NC(=O)c1ccc(CNC(=O)OCc2cccnc2)cc1 + Cc1cncc(-c2nc(NCCc3c[nH]c4ccccc34)c3ncn(C(C)C)c3n2)c1 | 11.9
O=C(C=Cc1cccc(S(=O)(=O)Nc2ccccc2)c1)NO + Cc1cncc(-c2nc(NCCc3c[nH]c4ccccc34)c3ncn(C(C)C)c3n2)c1 | 4.08
O=C(c1cc(Cc2n[nH]c(=O)c3ccccc23)ccc1F)N1CCN(C(=O)C2CC2)CC1 + Cc1cncc(-c2nc(NCCc3c[nH]c4ccccc34)c3ncn(C(C)C)c3n2)c1 | 61.5

Same assay, conditions: second compound 3.16 µM; first compound 0.000949 µM; hits give low values

SMILES | viability, T/C [%]
CC(C)CC(NC(=O)C(Cc1ccccc1)NC(=O)c1cnccn1)B(O)O (configuration not stated) + Cc1cncc(-c2nc(NCCc3c[nH]c4ccccc34)c3ncn(C(C)C)c3n2)c1 | 62.3
CCc1c2c(nc3ccc(O)cc13)-c1cc3c(c(=O)n1C2)COC(=O)[C@]3(O)CC + Cc1cncc(-c2nc(NCCc3c[nH]c4ccccc34)c3ncn(C(C)C)c3n2)c1 | 44.6

Same assay, conditions: second compound 3.16 µM; first compound 0.003 µM; hits give low values

SMILES | viability, T/C [%]
CC(C)CC(NC(=O)C(Cc1ccccc1)NC(=O)c1cnccn1)B(O)O (configuration not stated) + Cc1cncc(-c2nc(NCCc3c[nH]c4ccccc34)c3ncn(C(C)C)c3n2)c1 | 77
CCc1c2c(nc3ccc(O)cc13)-c1cc3c(c(=O)n1C2)COC(=O)[C@]3(O)CC + Cc1cncc(-c2nc(NCCc3c[nH]c4ccccc34)c3ncn(C(C)C)c3n2)c1 | 35.2

Same assay, conditions: second compound 3.16 µM; first compound 0.00949 µM; hits give low values

SMILES | viability, T/C [%]
CC(C)CC(NC(=O)C(Cc1ccccc1)NC(=O)c1cnccn1)B(O)O (configuration not stated) + Cc1cncc(-c2nc(NCCc3c[nH]c4ccccc34)c3ncn(C(C)C)c3n2)c1 | 41.6
CCc1c2c(nc3ccc(O)cc13)-c1cc3c(c(=O)n1C2)COC(=O)[C@]3(O)CC + Cc1cncc(-c2nc(NCCc3c[nH]c4ccccc34)c3ncn(C(C)C)c3n2)c1 | 19.6

Same assay, conditions: second compound 3.16 µM; first compound 0.03 µM; hits give low values

SMILES | viability, T/C [%]
CC(C)CC(NC(=O)C(Cc1ccccc1)NC(=O)c1cnccn1)B(O)O (configuration not stated) + Cc1cncc(-c2nc(NCCc3c[nH]c4ccccc34)c3ncn(C(C)C)c3n2)c1 | 1.9
CCc1c2c(nc3ccc(O)cc13)-c1cc3c(c(=O)n1C2)COC(=O)[C@]3(O)CC + Cc1cncc(-c2nc(NCCc3c[nH]c4ccccc34)c3ncn(C(C)C)c3n2)c1 | 11.1

Same assay, conditions: second compound 3.16 µM; first compound 0.0316 µM; hits give low values

SMILES | viability, T/C [%]
COc1cc(Nc2ncc3c(n2)-c2ccc(Cl)cc2C(c2c(F)cccc2OC)=NC3)ccc1C(=O)O + Cc1cncc(-c2nc(NCCc3c[nH]c4ccccc34)c3ncn(C(C)C)c3n2)c1 | 44.6
Nc1ccccc1NC(=O)c1ccc(CNC(=O)OCc2cccnc2)cc1 + Cc1cncc(-c2nc(NCCc3c[nH]c4ccccc34)c3ncn(C(C)C)c3n2)c1 | 43.5
O=C(C=Cc1cccc(S(=O)(=O)Nc2ccccc2)c1)NO + Cc1cncc(-c2nc(NCCc3c[nH]c4ccccc34)c3ncn(C(C)C)c3n2)c1 | 46.3
O=C(c1cc(Cc2n[nH]c(=O)c3ccccc23)ccc1F)N1CCN(C(=O)C2CC2)CC1 + Cc1cncc(-c2nc(NCCc3c[nH]c4ccccc34)c3ncn(C(C)C)c3n2)c1 | 61.6

Same assay, conditions: second compound 3.16 µM; first compound 0.0949 µM; hits give low values

SMILES | viability, T/C [%]
CC(C)CC(NC(=O)C(Cc1ccccc1)NC(=O)c1cnccn1)B(O)O (configuration not stated) + Cc1cncc(-c2nc(NCCc3c[nH]c4ccccc34)c3ncn(C(C)C)c3n2)c1 | 0.89
CCc1c2c(nc3ccc(O)cc13)-c1cc3c(c(=O)n1C2)COC(=O)[C@]3(O)CC + Cc1cncc(-c2nc(NCCc3c[nH]c4ccccc34)c3ncn(C(C)C)c3n2)c1 | 6.69

Same assay, conditions: second compound 3.16 µM; first compound 0.1 µM; hits give low values

SMILES | viability, T/C [%]
COc1cc(Nc2ncc3c(n2)-c2ccc(Cl)cc2C(c2c(F)cccc2OC)=NC3)ccc1C(=O)O + Cc1cncc(-c2nc(NCCc3c[nH]c4ccccc34)c3ncn(C(C)C)c3n2)c1 | 38.7
Nc1ccccc1NC(=O)c1ccc(CNC(=O)OCc2cccnc2)cc1 + Cc1cncc(-c2nc(NCCc3c[nH]c4ccccc34)c3ncn(C(C)C)c3n2)c1 | 47.4
O=C(C=Cc1cccc(S(=O)(=O)Nc2ccccc2)c1)NO + Cc1cncc(-c2nc(NCCc3c[nH]c4ccccc34)c3ncn(C(C)C)c3n2)c1 | 46.6
O=C(c1cc(Cc2n[nH]c(=O)c3ccccc23)ccc1F)N1CCN(C(=O)C2CC2)CC1 + Cc1cncc(-c2nc(NCCc3c[nH]c4ccccc34)c3ncn(C(C)C)c3n2)c1 | 67.3

Same assay, conditions: second compound 3.16 µM; first compound 0.3 µM; hits give low values

SMILES | viability, T/C [%]
CC(C)CC(NC(=O)C(Cc1ccccc1)NC(=O)c1cnccn1)B(O)O (configuration not stated) + Cc1cncc(-c2nc(NCCc3c[nH]c4ccccc34)c3ncn(C(C)C)c3n2)c1 | 1.05
